In ChEMBL document CHEMBL3785086, “Design and synthesis of natural product derivatives with selective and improved cytotoxicity based on a sesquiterpene scaffold” (Bioorg Med Chem Lett, 2016):

Experiments:
MCF7 = assay: Cytotoxicity against human MCF7 cells assessed as cell proliferation after 24 hrs by CCK-8 assay; assay type: functional, cell-based; settings: MCF7, 24 h
HeLa = assay: Cytotoxicity against human HeLa cells assessed as cell proliferation after 24 hrs by CCK-8 assay; assay type: functional, cell-based
[1] = Cytotoxicity against human HO8910 cells assessed as cell proliferation after 24 hrs by CCK-8 assay; assay type: functional, cell-based; settings: HO-8910, 24 h
A549 = assay: Cytotoxicity against human A549 cells assessed as cell proliferation after 24 hrs by CCK-8 assay; assay type: functional, cell-based; settings: A549, 24 h
[2] = Cytotoxicity against human T24 cells assessed as cell proliferation after 24 hrs by CCK-8 assay; assay type: functional, cell-based; settings: T-24, 24 h
[3] = Cytotoxicity against human BGC823 cells assessed as cell proliferation after 24 hrs by CCK-8 assay; assay type: functional, cell-based; settings: BGC-823, 24 h
[4] = Cytotoxicity against mouse NIH/3T3 cells assessed as cell proliferation after 24 hrs by CCK-8 assay; assay type: cell-based; settings: NIH3T3, 24 h

Compound | IC50 (MCF7) [µM] | IC50 (HeLa) [µM] | IC50 [1] [µM] | IC50 (A549) [µM] | IC50 [2] [µM] | IC50 [3] [µM] | IC50 [4] [µM]
C=C1CCC(c2coc(/C=C(\C)C(N)=O)c2)CC1 | 8.47 | 5.01 | 18 | > 50 | > 50 | > 50 | > 50
C/C(=C\c1cc(-c2ccc3c(c2)OCO3)cs1)C(N)=O | 3.05 | > 50 | > 50 | > 50 | > 50 | > 50 | > 50
C/C(=C\c1ccc(-c2ccc(F)cc2)o1)C(N)=O | 0.97 | 2.03 | 0.99 | 1.65 | 3.32 | 0.94 | 0.96
C/C(=C\c1ccc(-c2ccc(C)cc2)o1)C(N)=O | > 50 | 4.59 | 1.66 | > 50 | > 50 | > 50 | > 50
C/C(=C\c1cc(C2=CCCCC2)co1)C(N)=O | 6.58 | > 50 | > 50 | > 50 | > 50 | > 50 | > 50
C/C(=C\c1cc(-c2ccc(Cl)cc2)cs1)C(N)=O | 17.1 | > 50 | > 50 | > 50 | > 50 | > 50 | > 50
C/C(=C\c1nc(-c2ccc(F)cc2)cs1)C(N)=O | 3.3 | 5.4 | 4.45 | 13.2 | > 50 | > 50 | > 50
C/C(=C\c1cc(-c2ccc(S(C)(=O)=O)cc2)cs1)C(N)=O | > 50 | > 50 | > 50 | > 50 | > 50 | > 50 | > 50
C/C(=C\c1cc(-c2ccccc2)co1)C(N)=O | 3.34 | 3.28 | 42.4 | > 50 | > 50 | > 50 | > 50
C/C(=C\c1cc(-c2ccc(C)cc2)cs1)C(N)=O | > 50 | > 50 | > 50 | > 50 | > 50 | > 50 | > 50
C/C(=C\c1cc(C2=CCCC2)co1)C(N)=O | 15 | 17.6 | > 50 | 16.6 | > 50 | > 50 | 49.3
C/C(=C\c1cc(-c2ccccc2C)cs1)C(N)=O | 4.92 | 19.4 | 15.2 | > 50 | > 50 | > 50 | > 50
C/C(=C\c1cc(-c2ccc(F)cc2)co1)C(N)=O | 2.21 | 11.8 | > 50 | 14.9 | > 50 | > 50 | > 50
C/C(=C\c1cc(-c2ccccc2)cs1)C(N)=O | 2.68 | 12.7 | > 50 | > 50 | > 50 | > 50 | > 50
C/C(=C\c1cc(-c2ccc(C)cc2)co1)C(N)=O | 1.63 | 12 | 24.2 | > 50 | > 50 | > 50 | > 50
C/C(=C\c1cc(-c2ccc([N+](=O)[O-])cc2)cs1)C(N)=O | 1.21 | 2.9 | 2.38 | 3.5 | > 50 | > 50 | > 50
C/C(=C\c1nc(-c2ccccc2)cs1)C(N)=O | 2.38 | 2.77 | 3.78 | > 50 | > 50 | > 50 | > 50
C/C(=C\c1cc(-c2ccc(F)nc2)co1)C(N)=O | 14.1 | > 50 | 30 | > 50 | > 50 | > 50 | > 50
C/C(=C\c1cccc(-c2ccc(C)cc2)c1)C(N)=O | 6.71 | 24.8 | 26.8 | 5.1 | 7.65 | > 50 | > 50
C/C(=C\c1cc(-c2cccnc2)co1)C(N)=O | 13.2 | > 50 | 8.64 | 6.62 | > 50 | > 50 | > 50
COc1ccc(-c2csc(/C=C(\C)C(N)=O)c2)cc1 | > 50 | > 50 | > 50 | > 50 | > 50 | > 50 | > 50
C/C(=C\c1nc(-c2ccc(C)cc2)cs1)C(N)=O | > 50 | 25 | > 50 | > 50 | > 50 | > 50 | > 50
C/C(=C\c1cc(-c2ccc(C)nc2)co1)C(N)=O | 10.2 | > 50 | > 50 | > 50 | > 50 | > 50 | > 50
C/C(=C\c1cccc(-c2ccccc2)c1)C(N)=O | 6.54 | 15.7 | 12.6 | > 50 | > 50 | > 50 | > 50
C/C(=C\c1cc(-c2ccc(C(F)(F)F)cc2)cs1)C(N)=O | 50 | > 50 | > 50 | > 50 | > 50 | > 50 | > 50
C/C(=C\c1cc(-c2ccc(F)cc2)cs1)C(N)=O | 1.44 | 20.8 | > 50 | > 50 | > 50 | > 50 | > 50
C=Cc1ccc(-c2csc(/C=C(\C)C(N)=O)c2)cc1 | > 50 | > 50 | > 50 | > 50 | > 50 | > 50 | > 50
C/C(=C\c1cc(-c2ccc(C#N)cc2)cs1)C(N)=O | 0.24 | 0.25 | 0.13 | > 50 | > 50 | > 50 | > 50
